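Assay format: 96-well plates, 48-hour exposure. GI50 marks 50% less growth.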 Calls of active or inactive are those of the source. Rule as the data show it: active = GI50 up to about 1.1 µM and inactive = higher.
Columns and labels:
Assay in all cases: growth of human tumour cells (NCI), 48 h
[1] = system: SNB-19
[2] = system: SK-MEL-28
[3] = system: NCI-H522
[4] = system: K562
[5] = system: M14
[6] = system: HT-29
[7] = system: MCF7
[8] = system: SF-295
[9] = system: SK-MEL-2
[10] = system: SNB-75
[11] = system: MDA-N
[12] = system: CAKI-1
[13] = system: SN12C
[14] = system: MDA-MB-435
[15] = system: SW-620
[16] = system: A498
[17] = system: NCI/ADR-RES
[18] = system: HOP-62
[19] = system: U-251

Measured: GI50

C1CSCCCSCCCSCCCSCCCSC1
inactive: [1] 37.9 µM | [2] > 100 µM | [3] 27.2 µM | [4] 21.4 µM | [5] 29.7 µM | [6] 22.9 µM | [7] 24.5 µM | [8] 22.2 µM | [9] 20.7 µM | [10] 20.1 µM | [11] 32.3 µM | [12] 17.7 µM | [13] 37.2 µM | [14] 41.9 µM | [15] 56.5 µM | [16] 36.2 µM | [17] 14.9 µM | [18] 47.4 µM | [19] 42.5 µM

CN(N=O)c1ccc(/C=C/c2ccnc3ccccc23)cc1
inactive: [1] 46.5 µM | [2] > 100 µM | [3] 46.6 µM | [4] 78.9 µM | [5] 93.1 µM | [6] 43.3 µM | [7] 53.8 µM | [8] 41.4 µM | [9] > 100 µM | [10] 25.1 µM | [11] 75.3 µM | [12] 42.3 µM | [13] 37.6 µM | [14] > 100 µM | [15] 73.3 µM | [16] 60.4 µM | [17] 83.4 µM | [18] 78.3 µM | [19] 54.8 µM

C[C@]12Cc3cnc(-c4ccccc4)nc3C[C@@H]1CC[C@@H]1[C@@H]2CC[C@@]2(C)[C@H]1CC[C@]2(C)O
inactive: [1] 18.5 µM | [2] 18.6 µM | [3] 10.7 µM | [4] 2.96 µM | [5] 11.1 µM | [6] 4.15 µM | [7] 19.3 µM | [8] 14.8 µM | [9] 21 µM | [10] 6.12 µM | [11] 16.4 µM | [12] 4.98 µM | [13] 17.9 µM | [14] 20.8 µM | [15] 21.2 µM | [16] 16.3 µM | [17] 15.4 µM | [18] 13.6 µM | [19] 16 µM

N=C(N)c1ccc(/N=N\c2c(O)c(C(=O)Nc3ccccc3)cc3ccccc23)cc1
inactive: [1] 19.6 µM | [2] > 100 µM | [3] 10.1 µM | [4] 7.08 µM | [5] > 71.4 µM | [6] 18.4 µM | [7] 9.86 µM | [8] > 60.3 µM | [9] 68.1 µM | [10] 12.9 µM | [11] 35.7 µM | [12] > 58.9 µM | [13] 23.8 µM | [14] 41.5 µM | [15] 15.6 µM | [16] > 100 µM | [17] > 100 µM | [18] 14.5 µM | [19] 3.76 µM

CC(CCC(=O)O)C(=O)O (configuration not stated)
inactive: [1] > 100 µM | [2] > 100 µM | [3] > 100 µM | [4] > 100 µM | [5] > 100 µM | [6] > 100 µM | [7] > 100 µM | [8] > 100 µM | [9] > 100 µM | [10] > 100 µM | [11] > 100 µM | [12] > 100 µM | [13] > 100 µM | [14] > 100 µM | [15] > 100 µM | [16] > 100 µM | [17] > 100 µM | [18] > 100 µM | [19] > 100 µM

O=c1c(=O)c2c(Br)sc(Br)c2c1=O
inactive: [1] 70.6 µM | [2] 14.7 µM | [3] 16.1 µM | [4] 21.4 µM | [5] 19.8 µM | [6] 25 µM | [7] 20.3 µM | [8] > 100 µM | [9] 20.8 µM | [10] 28.9 µM | [11] 18.1 µM | [12] 19.1 µM | [13] 17.3 µM | [14] 19.1 µM | [15] 15.8 µM | [16] > 100 µM | [17] 32.7 µM | [18] 30.2 µM | [19] 23.6 µM

CCOC(=O)c1ccc(Nc2c3c(nc4ccccc24)CCCC3)cc1
inactive: [1] 41 µM | [2] > 100 µM | [3] 3.62 µM | [4] 3.74 µM | [5] > 34.2 µM | [6] 2.89 µM | [7] 12 µM | [8] 17.1 µM | [9] > 86.9 µM | [10] 6.73 µM | [11] 1.76 µM | [12] 54.5 µM | [13] > 100 µM | [14] 1.77 µM | [15] 4.2 µM | [16] 15.3 µM | [17] > 30.3 µM | [18] 10.6 µM | [19] 22.9 µM

COc1ccccc1/C=C/c1cnccn1
inactive: [1] > 10 µM | [2] > 10 µM | [3] > 10 µM | [4] > 10 µM | [5] > 10 µM | [6] > 10 µM | [7] > 10 µM | [8] > 10 µM | [9] > 10 µM | [10] > 10 µM | [11] > 10 µM | [12] > 10 µM | [13] > 10 µM | [14] > 10 µM | [15] > 10 µM | [16] > 10 µM | [17] > 10 µM | [18] > 10 µM | [19] > 10 µM
